Where two headings read alike, the source gives them in different places.
How the values were obtained:
[1] = Ataluren glucuronidation kinetics, human kidney microsomes; type: in vitro ADME; conditions: for CLint,u,UGT (scaled) / K m / K m, u / V max: HKM; for CLint,u,UGT (scaled): 12.8 mg protein/g tissue; for K m / K m, u / V max: mean ± SE; for K m / K m, u / V max / fraction unbound at 15 min: n = 3; for fraction unbound at 15 min / microsomal CLint: human, pH 7.5, HKM; for fraction unbound at 15 min: pooled human kidney microsomes incubation mixture, mean ± SD, read-out: fu,inc; for microsomal CLint: pooled human kidney microsomes, read-out: CLint,u,UGT
Procedure: (§1) Ataluren at 0.5, 2.5, 12.5, 25, 50, 100, 200, and 400 µmol/L, was incubated (n = 3) at 37°C with recombinant human UGT1A9 and with pooled microsomes from human liver, kidney, and intestine (0.025 mg protein/mL, preactivated with alamethicin at 20 µg/mL) in Tris‐HCl buffer (0.1 mol/L, pH 7.5), in the presence of 1 mmol/L EDTA, 5 mmol/L MgCl2, with or without 0.5%, 1%, or 2% BSA. The incubation (100 µL final volume with 0.5% DMSO) was started by adding an equal volume of UDPGA (5 mmol/L) in Tris‐HCl buffer (0.1 mol/L, pH 7.5). After 30 minutes incubation, the incubation mixtures were combined with 0.3 mL of an internal standard solution in acetonitrile with 1% formic acid, followed by membrane plate filtration. The filtrates were used for LC‐MS/MS analysis to quantify the formation of ataluren‐O‐1β‐acyl glucuronide. Detailed LC‐MS/MS conditions are summarized in LC‐MS/MS Analysis section. Ataluren acyl glucuronide formation rate after 30 minutes incubation was calculated using the amount of metabolite formed (pmol) divided by the protein amount in the incubation sample (0.0025 mg) and the incubation time (30 minutes). Ataluren glucuronidation kinetic parameters were determined with and without adjusting BSA binding by nonlinear regression (GraphPad Prism, 5version 5.04, GraphPad Software, Inc.) using Michaelis‐Menten equation which was the best fit compared with other models. The intrinsic clearance was calculated as CLint = Vmax/Km. In order to compare unbound intrinsic clearance by glucuronidation (CLint,u,UGT) in different tissues, CLint,u,UGT was expressed per gram of tissue by correcting the values for the microsomal protein yield, resulting in scaled CLint,u,UGT. Microsomal protein yields of 40.0, 12.8, and 20.6 mg protein/g tissue were used for hepatic, renal, and intestinal data, respectively. ^26
(§2) The high‐throughput membrane ultrafiltration method ^27 was used to determine the fraction unbound in the incubation (n = 3). Incubation mixtures and procedures were essentially the same as the above except that UDPGA (5 mmol/L) was replaced with Tris‐HCl buffer (0.1 mol/L, pH 7.5). After 15 minutes incubation, aliquot was transferred to a Millipore Multiscreen Ultracel‐10 filter plate (10 kDa molecular mass cut off; EMD Millipore). The plate was centrifuged at 37°C and 3710 g. After 30 minutes centrifugation, aliquots of ultrafiltrates and incubation mixtures prior to ultrafiltration were quenched with an internal standard solution in acetonitrile, followed by membrane plate filtration. The filtrates were used for LC‐MS/MS analysis to quantify the concentration of ataluren. The same LC‐MS/MS conditions described above are summarized in LC‐MS/MS Analysis section. The free fraction = Cu/Cm, where Cu is the concentration of ataluren in the ultrafiltrate and Cm is the concentration of ataluren in the incubation system before centrifugation. Unbound Km (Km, u) was recalculated by applying Michaelis‐Menten equation using free ataluren concentrations after correcting BSA binding at each ataluren and BSA concentration level.
(§3) Quantification of ataluren‐O‐1β‐acyl glucuronide formation was conducted on an Accela pump and a PAL autosampler equipped with a TSQ Quantum Ultra mass spectrometer (Thermo Fisher Scientific). A Waters Acquity BEH column (C18, 1.7 µm, 50 × 2.1 mm; Waters Cooperation) was used and maintained at 50°C. The mobile phases were 0.1% formic acid in water (A) and acetonitrile (B). The flow rate was 0.6 mL/min and gradient program was as follows: linear gradient from 0% B to 95% B in 0.5 minutes and hold isocratic at 95% B for 1 minute; linear gradient from 95% B to 0% B in 0.1 minutes and hold isocratic at 0% B for 0.4 minutes. TSQ Quantum Ultra mass spectrometer was equipped with a heated electrospray ionization source operated in negative‐ion mode with a vaporizer temperature of 350°C, capillary temperature of 380°C, and spray voltage of 3 kV. […]

UGT (glucuronidation) = experiment: as above; type: in vitro ADME; conditions: human, pooled human kidney microsomes, pH 7.5, HKM, 0% BSA; read-out: CLint,u,UGT
Procedure: as §1, §2, §3

For `O=C(O)c1cccc(-c2noc(-c3ccccc3F)n2)c1` [ataluren, Ataluren], the “human kidney microsomes more active than human liver microsomes in ataluren glucuronidation, in terms of CLint,u/mg protein” value ([1]; HKM vs HLM) was “about 3.7 fold”, the “CLint,u,UGT (scaled)” value ([1]; 0% BSA) was 4.15 mL/min/g of tissue and the K m ([1]; 0% BSA) was 10.8 ± 1.40 µM. For the same compound, the “K m, u” value ([1]; 0% BSA) was 10.8 ± 1.40 µM, the V max ([1]; 0% BSA) was 3948 ± 90.3 pmol/min/mg and the “CLint,u,UGT (scaled)” value ([1]; 0.5% BSA) was 12.18 mL/min/g of tissue. The K m ([1]; 0.5% BSA) was 33.0 ± 7.36 µM, the “K m, u” value ([1]; 0.5% BSA) was 3.09 ± 0.671 µM and the V max ([1]; 0.5% BSA) was 2941 ± 168 pmol/min/mg. For the same compound, the “CLint,u,UGT (scaled)” value ([1]; 1% BSA) was 20.0 mL/min/g of tissue, the K m ([1]; 1% BSA) was 36.5 ± 6.31 µM and the “K m, u” value ([1]; 1% BSA) was 1.64 ± 0.334 µM. The V max ([1]; 1% BSA) was 2563 ± 137 pmol/min/mg, the “CLint,u,UGT (scaled)” value ([1]; 2% BSA) was 16.5 mL/min/g of tissue and the K m ([1]; 2% BSA) was 74.1 ± 8.38 µM. The “K m, u” value ([1]; 2% BSA) was 1.82 ± 0.291 µM, the V max ([1]; 2% BSA) was 2342 ± 119 pmol/min/mg and the “maximal effect of BSA on CLint,u (increase)” value ([1]; human kidney microsomes, with vs without BSA) was roughly 4.8 fold. For the same compound, the fraction unbound at 15 min ([1]; 0% BSA) was 1 ± 0.121, the fraction unbound at 15 min ([1]; 0.5% BSA) was 0.095 ± 0.003 and the fraction unbound at 15 min ([1]; 1% BSA) was 0.05 ± 0.002. The fraction unbound at 15 min ([1]; 2% BSA) was 0.03 ± 0.003, the microsomal CLint ([1]; 0.5% BSA) was 952 µL/min/mg and the microsomal CLint ([1]; 1% BSA) was 1560 µL/min/mg. The microsomal CLint ([1]; 2% BSA) was 1290 µL/min/mg and the microsomal CLint (UGT (glucuronidation)) was 324 µL/min/mg.

Source: publication PMC7083565, “In vitro metabolism, reaction phenotyping, enzyme kinetics, CYP inhibition and induction potential of ataluren” (Pharmacology Research & Perspectives, 2020)
